Test results published in patent US20060160879A1, “Indoles useful in the treatment of inflammation” (priority 2003, published 2006).

target: T1, mPGES-1 (Homo sapiens, UniProt O14684); experiment: mPGES-1 assay: conversion of PGH2 to PGE2, PGE2 analysed by HPLC; format: biochemical; set-up: dose or concentration left out as unconfirmed
T1 construct: made in house; host or cells: E. coli (membrane fraction)
T1 sequence (O14684 1-152): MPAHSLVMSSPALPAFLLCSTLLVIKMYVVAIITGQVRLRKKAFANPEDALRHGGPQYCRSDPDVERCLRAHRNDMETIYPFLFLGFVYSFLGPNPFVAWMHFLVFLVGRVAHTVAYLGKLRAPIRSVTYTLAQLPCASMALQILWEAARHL
Method: In the assay mPGES-1 catalyses the reaction where the substrate PGH2 is converted to PGE2. mPGES-1 is expressed in E. coli and the membrane fraction is dissolved in 20 mM NaPi-buffer pH 8.0 and stored at −80° C. In the assay mPGES-1 is dissolved in 0.1M KPi-buffer pH 7.35 with 2.5 mM glutathione. The stop solution consists of H2O/MeCN (7/3), containing FeCl2 (25 mM) and HCl (0.15 M). The assay is performed at room temperature in 96-well plates. Analysis of the amount of PGE2 is performed with reversed phase HPLC (Waters 2795 equipped with a 3.9×150 mm C18 column). The mobile phase consists of H2O/MeCN (7/3), containing TFA (0.056%), and absorbance is measured at 195 nm with a Waters 2487 UV-detector.
The following is added chronologically to each well: • 1. 100 μL mPGES-1 in KPi-buffer with glutathione. Total protein concentration: 0.02 mg/mL. • 2. 1 μL inhibitor in DMSO. Incubation of the plate at room temperature for 25 minutes. • 3. 4 μL of a 0.25 mM PGH2 solution. Incubation of the plate at room temperature for 60 seconds. • 4. 100 μL stop solution. • 180 μL per sample is analyzed with HPLC.

Structure (SMILES) | inhibition of mPGES-1 [%]
O=C(O)c1c(-c2ccccc2)c2cc(-c3ccc4c(c3)OCO4)ccc2n1CCCc1ccccc1 [Example 3, 5-(3,4-Methylenedioxyphenyl)-3-phenyl-1-(3-phenylpropyl)indole-2-carboxylic acid] | 85
CC(C)(C)c1ccc(-c2ccc3c(-c4ccccc4)c(C(=O)O)n(Cc4cccc(Oc5ccccc5)c4)c3c2)cc1 [Example 1, 6-(4-tert-Butylphenyl)-1-(3-phenoxybenzyl)-3-phenylindole-2-carboxylic acid] | 96
O=C(O)c1c(-c2ccccc2)c2cc(-c3cccnc3)ccc2n1CCCc1ccccc1 [Example 4, 3-Phenyl-1-(3-phenylpropyl)-5-(3-pyridyl)indole-2-carboxylic acid] | 81
O=C(O)c1cccc(-c2c(C(=O)O)n(Cc3cccc(C(F)(F)F)c3)c3cccc(-c4ccccc4)c23)c1 [Example 6, 3-(3-Carboxyphenyl)-4-phenyl-1-[3-(trifluoromethyl)benzyl]indole-2-carboxylic acid] | 100
O=C(O)c1cccc(-c2c(C(=O)O)n(Cc3cccc([N+](=O)[O-])c3)c3cc(-c4ccc(OCc5ccccc5)cc4)ccc23)c1 [Example 5, 6-(4-Benzyloxyphenyl)-3-(3-carboxyphenyl)-1-(3-nitrobenzyl)indole-2-carboxylic acid] | 93
CC(C)(C)c1ccc(-c2ccc3c(-c4cccs4)c(C(=O)O)n(Cc4cccc(Oc5ccccc5)c4)c3c2)cc1 [Example 2, 6-(4-tert-Butylphenyl)-1-(3-phenoxybenzyl)-3-(2-thienyl)indole-2-carboxylic acid] | 100
